Literature values as cited in patent US11154507B2, “Freeze-dried aripiprazole formulation” (OTSUKA PHARMACEUTICAL CO., LTD., priority 2011, dated 2021).

Conditions: room temperature

In the case of O=C1CCc2ccc(OCCCCN3CCN(c4cccc(Cl)c4Cl)CC3)cc2N1 [Aripiprazole], the solubility in water is listed as less than 1 µg/mL.
